Values joined by “and” are separate entries in the source; they are usually repeats but may differ in a detail not shown here. Equal entries are not always repeated.
Assays:
some examined cell types = test: Transfection expression and % cells transfected over the no peptide control; assay type: cell-based; details: on some examined cell types
Description: (§1) Cells were plated to so that on the day of transfection the cells were 60-70% confluent in 96 well tissue culture plates. A DOMTA/DOPE Lipid solution (1:1 molar ratio) at 2 mg/mL in water were mixed with an equal volume of surface ligand peptides that had the nucleic acid binding moiety RRRRRRRRRRRR (SEQ ID NO: 109) covalently linked to the n terminus of each peptide during peptide synthesis. Peptides were at 2 mg/mL in water. The DOTMA/DOPE and the surface ligand peptide solution the transfection reagent was diluted 1 to 1 (v/v) in water. DOMTA/DOPE/PEPTIDE solutions were added to 0.1 mL of a plasmid DNA solution (EF1Alpha eGFP plasmid) at 5 μg/mL in OptiMEM. Lipofectamine 2000 was obtained from Life Technologies.
(§2) All solutions were at room temperature. A volume of 0.2 mL of a 5 μg/mL solution of DNA was aliquoted into each well of a non-tissue cultured treated plate. 4.0 μL of transfection reagents were added to DNA solutions respectively. The transfection reagent and DNA solution was mixed by pipetting up and down twice. Transfection complexes were formed for 10 minutes. After 10 minutes, 0.01 or 0.02 mL of the transfection complex was added to cells. HuVEC, HeLa, human adult keratinocytes, human primary adult fibroblast, and rat cortical neurons all respectively received 0.01 mL of the tramsfectopm complex. Human skeletal muscle cells, mouse C2C12 cells, Jurkat, and THP-1 cells received 0.02 mL of the transfection complex. Cells were incubated for 42 hours at 37° C. at 5% CO2. Plates were read on a fluorescent plate reader. Cells were also examined visually under a microscope to assess the extent of transfection (in terms of the percent of cells transfected) with a fluorescent microscope. Other modes of analysis, for example quantification with B-galactosidase or luciferase reports plasmids can also be used. […] Surface ligand that caused increase expression of GFP over the lipid DOTMA with no surface ligand were considered to enhance transfection or had higher % cells transfected were considered to enhance transfection. Peptides that gave greater than 2 fold enhancement are noted in bold and could be further optimized by adding different transfection enhancers or could be used with different cationic lipids or polymers.

Human Fibroblast Cells = test: Transfection of human fibroblast cells with DOTMA/DOPE/peptide and eGFP plasmid, fluorescent plate reader; assay type: cell-based; details: DOTMA/DOPE 1:1 plus peptide with RRRRRRRRRRRR (SEQ ID NO: 109) at n terminus; EF1Alpha eGFP plasmid; 0.01 mL complex; 42 hours
Description: as §1, §2

HuVec Cells = test: Transfection of HuVec cells with DOTMA/DOPE/peptide and eGFP plasmid, fluorescent plate reader; assay type: cell-based; details: DOTMA/DOPE 1:1 plus peptide with RRRRRRRRRRRR (SEQ ID NO: 109) at n terminus; EF1Alpha eGFP plasmid; 0.01 mL complex; 42 hours
Description: as §1, §2

NL-1 iPS Cells = test: Transfection of NL-1 iPS cells with DOTMA/DOPE/peptide and eGFP plasmid, fluorescent plate reader; assay type: cell-based; details: DOTMA/DOPE 1:1 plus peptide with RRRRRRRRRRRR (SEQ ID NO: 109) at n terminus; EF1Alpha eGFP plasmid; 42 hours
Description: as §1, §2

HeLa Cells [1] = test: Transfection of HeLa cells with DOTMA/DOPE/peptide and eGFP plasmid, fluorescent plate reader; assay type: cell-based; details: DOTMA/DOPE 1:1 plus peptide with RRRRRRRRRRRR (SEQ ID NO: 109) at n terminus; EF1Alpha eGFP plasmid; 0.01 mL complex; 42 hours
Description: as §1, §2

HeLa Cells [2] = test: Transfection of HeLa cells with DOTMA/SEQ ID NO: 72/peptide compared with Lipofectamine 2000; assay type: cell-based; details: fusogenic peptide 0.1 mg/mL
Description: as §1, §2
The fusogenic peptide was added to the DOMTA/peptide formulation to achieve a final concentration of 0.1 mg/mL to see if transfection reagents were further enhanced by the addition of a fusogenic peptide and could provide higher transfection efficiency into HeLa cells and expression than the commercially available Lipofectamine 2000.

Jurkat Cells = test: Transfection of Jurkat cells with DOTMA/DOPE/peptide and eGFP plasmid, fluorescent plate reader; assay type: cell-based; details: DOTMA/DOPE 1:1 plus peptide with RRRRRRRRRRRR (SEQ ID NO: 109) at n terminus; EF1Alpha eGFP plasmid; 0.02 mL complex; 42 hours
Description: as §1, §2

C2C12 Cells = test: Transfection of C2C12 cells with DOTMA/DOPE/peptide and eGFP plasmid, fluorescent plate reader; assay type: cell-based, mouse; details: DOTMA/DOPE 1:1 plus peptide with RRRRRRRRRRRR (SEQ ID NO: 109) at n terminus; EF1Alpha eGFP plasmid; 0.02 mL complex; 42 hours
Description: as §1, §2

[3] = 0.1 μL of DOTMA/SEQ ID NO: 72/Peptide in well of a 96 well plate
[4] = 0.2 μL of DOTMA/SEQ ID NO: 72/Peptide in well of a 96 well plate
[5] = 0.3 μL of DOTMA/SEQ ID NO: 72/Peptide in well of a 96 well plate
[6] = 0.4 μL of DOTMA/SEQ ID NO: 72/Peptide in well of a 96 well plate

## 236 (KNNQKSEPLIGRKKT; Peptidic transfection agent) [compound 236]
Some examined cell types
  transfection expression and the % cells transfected over the no peptide control: increased
Human Fibroblast Cells
  RF (Relative Fluorescence) of Transfection of Human Fibroblast Cells: 3630 and 3000
HuVec Cells
  RF (Relative Fluorescence) of Transfection of HuVec Cells: 14418
NL-1 iPS Cells
  RF (Relative Fluorescence) of Transfection of NL-1 iPS Cells: 43542 and 22256
HeLa Cells [1]
  RF (Relative Fluorescence) of Transfection of HeLa Cells: 7202 and 5042
HeLa Cells [2]; [3]
  RF (Relative Fluorescence), DOTMA/SEQ ID NO: 72/Peptide, HeLa Cells: 5993
HeLa Cells [2]; [4]
  RF (Relative Fluorescence), DOTMA/SEQ ID NO: 72/Peptide, HeLa Cells: 8846
HeLa Cells [2]; [5]
  RF (Relative Fluorescence), DOTMA/SEQ ID NO: 72/Peptide, HeLa Cells: 8492
HeLa Cells [2]; [6]
  RF (Relative Fluorescence), DOTMA/SEQ ID NO: 72/Peptide, HeLa Cells: 7316

## 335 (TVFSVDQDNMLE; Peptidic transfection agent) [compound 335]
Jurkat Cells
  RF (Relative Fluorescence) of Transfection of Jurkat Cells: 4567
Human Fibroblast Cells
  RF (Relative Fluorescence) of Transfection of Human Fibroblast Cells: 8534
C2C12 Cells
  RF (Relative Fluorescence) of Transfection of C2C12 Cells: 4689
HuVec Cells
  RF (Relative Fluorescence) of Transfection of HuVec Cells: 6350
NL-1 iPS Cells
  RF (Relative Fluorescence) of Transfection of NL-1 iPS Cells: 14424
HeLa Cells [1]
  RF (Relative Fluorescence) of Transfection of HeLa Cells: 26954
HeLa Cells [2]; [3]
  RF (Relative Fluorescence), DOTMA/SEQ ID NO: 72/Peptide, HeLa Cells: 12866
HeLa Cells [2]; [4]
  RF (Relative Fluorescence), DOTMA/SEQ ID NO: 72/Peptide, HeLa Cells: 12458
HeLa Cells [2]; [5]
  RF (Relative Fluorescence), DOTMA/SEQ ID NO: 72/Peptide, HeLa Cells: 11547
HeLa Cells [2]; [6]
  RF (Relative Fluorescence), DOTMA/SEQ ID NO: 72/Peptide, HeLa Cells: 9753

## 349 (RNIAEIIKDI; Peptidic transfection agent) [compound 349]
Some examined cell types
  transfection expression and the % cells transfected over the no peptide control: increased
Jurkat Cells
  RF (Relative Fluorescence) of Transfection of Jurkat Cells: 23167
Human Fibroblast Cells
  RF (Relative Fluorescence) of Transfection of Human Fibroblast Cells: 8810
HuVec Cells
  RF (Relative Fluorescence) of Transfection of HuVec Cells: 22907
NL-1 iPS Cells
  RF (Relative Fluorescence) of Transfection of NL-1 iPS Cells: 33103
HeLa Cells [1]
  RF (Relative Fluorescence) of Transfection of HeLa Cells: 4433

## 363 (LAGSCLARFSTM; Peptidic transfection agent) [compound 363]
Jurkat Cells
  RF (Relative Fluorescence) of Transfection of Jurkat Cells: 2432
Human Fibroblast Cells
  RF (Relative Fluorescence) of Transfection of Human Fibroblast Cells: 3008
C2C12 Cells
  RF (Relative Fluorescence) of Transfection of C2C12 Cells: 1080
HuVec Cells
  RF (Relative Fluorescence) of Transfection of HuVec Cells: 1383
NL-1 iPS Cells
  RF (Relative Fluorescence) of Transfection of NL-1 iPS Cells: 4189
HeLa Cells [1]
  RF (Relative Fluorescence) of Transfection of HeLa Cells: 2590

## 371 (GPAGKDGEAGAQG; Peptidic transfection agent) [compound 371]
Jurkat Cells
  RF (Relative Fluorescence) of Transfection of Jurkat Cells: 6093
Human Fibroblast Cells
  RF (Relative Fluorescence) of Transfection of Human Fibroblast Cells: 4584
C2C12 Cells
  RF (Relative Fluorescence) of Transfection of C2C12 Cells: 983
HuVec Cells
  RF (Relative Fluorescence) of Transfection of HuVec Cells: 10669
NL-1 iPS Cells
  RF (Relative Fluorescence) of Transfection of NL-1 iPS Cells: 17587
HeLa Cells [1]
  RF (Relative Fluorescence) of Transfection of HeLa Cells: 5180

## 383 (TAG; Peptidic transfection agent) [compound 383]
Jurkat Cells
  RF (Relative Fluorescence) of Transfection of Jurkat Cells: 14910
Human Fibroblast Cells
  RF (Relative Fluorescence) of Transfection of Human Fibroblast Cells: 5896
C2C12 Cells
  RF (Relative Fluorescence) of Transfection of C2C12 Cells: 1876
HuVec Cells
  RF (Relative Fluorescence) of Transfection of HuVec Cells: 20267
NL-1 iPS Cells
  RF (Relative Fluorescence) of Transfection of NL-1 iPS Cells: 21983
HeLa Cells [1]
  RF (Relative Fluorescence) of Transfection of HeLa Cells: 8012

## 393 (LGTIPG; Peptidic transfection agent) [compound 393]
Some examined cell types
  transfection expression and the % cells transfected over the no peptide control: increased

## 501 (DLGTAGSCLRRFSTM; Peptidic transfection agent) [compound 501]
Some examined cell types
  transfection expression and the % cells transfected over the no peptide control: increased
Jurkat Cells
  RF (Relative Fluorescence) of Transfection of Jurkat Cells: 12350
Human Fibroblast Cells
  RF (Relative Fluorescence) of Transfection of Human Fibroblast Cells: 9473
C2C12 Cells
  RF (Relative Fluorescence) of Transfection of C2C12 Cells: 5913
HeLa Cells [2]; [3]
  RF (Relative Fluorescence), DOTMA/SEQ ID NO: 72/Peptide, HeLa Cells: 23571
HeLa Cells [2]; [4]
  RF (Relative Fluorescence), DOTMA/SEQ ID NO: 72/Peptide, HeLa Cells: 23993
HeLa Cells [2]; [5]
  RF (Relative Fluorescence), DOTMA/SEQ ID NO: 72/Peptide, HeLa Cells: 20410
HeLa Cells [2]; [6]
  RF (Relative Fluorescence), DOTMA/SEQ ID NO: 72/Peptide, HeLa Cells: 14749

## 502 (RNIAEIIKDI; Peptidic transfection agent) [compound 502]
C2C12 Cells
  RF (Relative Fluorescence) of Transfection of C2C12 Cells: 2589

Reference: patent US11085056B2, “Transfection complexes and methods of using the same” (MOLECULAR TRANSFER, INC., priority 2015, dated 2021)
